# pIC50, pKd: −log10 of the molar value.
# Experiments:
# NUGC4 WT = experiment: cells; parameters: ATP-based cell viability assay, growth inhibition of wild-type NUGC4 in FCS-free medium, 3 days; conditions: Homo sapiens, NUGC-4, 72 h; read-out: Growth inhibition (IC50) NUGC4 WT
# Method: For growth inhibition experiments, MKN45 or NUGC4 cells were grown in 96-well plates at 5 × 10^3/well on the previous day, and the cell supernatant was discarded and washed once with phosphate-buffered saline (PBS). Fucoidan or fucoidan analog solutions diluted in FCS-free Advanced RPMI 1640 medium were added to the cells and cultured for another 3 days. Cell proliferation was measured using the ATP-based cell viability assay. Fucoidan analogs inhibited the proliferative ability of NUGC4 cells, but minimal inhibitory activity was observed against KO cells (Figure 3B).
# MKN45 = experiment: cells; parameters: ATP-based cell viability assay, growth inhibition of MKN45 in FCS-free medium, 3 days; conditions: Homo sapiens, MKN-45, 72 h; read-out: Growth inhibition (IC50) MKN45
# Method: For growth inhibition experiments, MKN45 or NUGC4 cells were grown in 96-well plates at 5 × 10^3/well on the previous day, and the cell supernatant was discarded and washed once with phosphate-buffered saline (PBS). Fucoidan or fucoidan analog solutions diluted in FCS-free Advanced RPMI 1640 medium were added to the cells and cultured for another 3 days. Cell proliferation was measured using the ATP-based cell viability assay. We first measured the inhibitory activities of all synthesized fucoidan analogs 1–14 to narrow down the candidate. […] Next, the inhibitory activity of fucoidan analogs on the proliferation of MKN45 cells was measured (Figure 3A). […] From the viewpoint of growth and binding inhibitory activities, we narrowed it down to 2, 3, 10, 12, and 14 for further investigation.
# galectin-4 = molecular target: T1, galectin-4 (Homo sapiens, UniProt P56470); experiment: SPR (Biacore X100, galectin-4 immobilised on CM5), multi cycle; conditions: 25 °C, HBS-EP pH 7.4; LNT 31.3–500 μM; read-out: equilibrium binding constant
# T1 construct: gene LGALS4; full-length, His-tagged (pQE-9), E. coli M15[pREP4], TALON purified; two CRDs (N-CRD and C-CRD), approx. 36 kDa; amine-coupled on CM5 chip for SPR
# T1 sequence (P56470 1-323): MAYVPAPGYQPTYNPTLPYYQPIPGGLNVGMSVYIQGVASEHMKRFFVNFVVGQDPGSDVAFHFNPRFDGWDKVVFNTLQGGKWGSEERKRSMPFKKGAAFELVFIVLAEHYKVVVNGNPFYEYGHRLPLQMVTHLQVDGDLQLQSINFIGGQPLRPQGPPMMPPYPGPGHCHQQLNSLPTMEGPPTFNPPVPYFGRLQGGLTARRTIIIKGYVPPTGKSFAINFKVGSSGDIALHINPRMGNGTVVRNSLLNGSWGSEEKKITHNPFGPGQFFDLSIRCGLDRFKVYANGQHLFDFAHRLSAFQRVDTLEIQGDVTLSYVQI
SMILES,pIC50 (NUGC4 WT),pIC50 (MKN45),pKd (galectin-4)
"CCCCCCCCO[C@H]1O[C@@H](C)[C@@H](O[C@@H]2O[C@@H](C)[C@@H](O[C@@H]3O[C@@H](C)[C@@H](O[C@@H]4O[C@@H](C)[C@@H](OS(=O)(=O)O)[C@@H](OS(=O)(=O)O)[C@@H]4OS(=O)(=O)O)[C@@H](OS(=O)(=O)O)[C@@H]3OS(=O)(=O)O)[C@@H](OS(=O)(=O)O)[C@@H]2OS(=O)(=O)O)[C@@H](OS(=O)(=O)O)[C@@H]1OS(=O)(=O)O [compound 10, fucoidan analog 10]",> 4.30,–,–
"CCCCCCCCO[C@H]1O[C@@H](C)[C@@H](O[C@@H]2O[C@@H](C)[C@@H](O[C@@H]3O[C@@H](C)[C@@H](O[C@@H]4O[C@@H](C)[C@@H](O)[C@@H](O)[C@@H]4OS(=O)(=O)O)[C@@H](O)[C@@H]3OS(=O)(=O)O)[C@@H](O)[C@@H]2OS(=O)(=O)O)[C@@H](O)[C@@H]1OS(=O)(=O)O [compound 12, fucoidan analog 12]",< 4.30,< 4.00,–
CC(=O)N[C@H]1[C@H](O[C@H]2[C@@H](O)[C@@H](CO)O[C@@H](O[C@H]3[C@H](O)[C@@H](O)C(O)O[C@@H]3CO)[C@@H]2O)O[C@H](CO)[C@@H](O)[C@@H]1O[C@@H]1O[C@H](CO)[C@H](O)[C@H](O)[C@H]1O (some centres unmarked) [LNT],–,–,3.70
"CCCCCCCCOC1OC(C)C(OC2OC(C)C(OC3OC(C)C(OC4OC(C)C(O)C(O)C4O)C(O)C3O)C(O)C2O)C(O)C1O (centres unmarked) [compound 13, 13]",–,< 4.00,–
"CCCCCCCCOC1O[C@@H](C)[C@@H](O)[C@@H](O[C@@H]2O[C@@H](C)[C@@H](O)[C@@H](O[C@@H]3O[C@@H](C)[C@@H](O)[C@@H](O[C@@H]4O[C@@H](C)[C@@H](O)[C@@H](OS(=O)(=O)O)[C@@H]4OS(=O)(=O)O)[C@@H]3OS(=O)(=O)O)[C@@H]2OS(=O)(=O)O)[C@@H]1OS(=O)(=O)O (some centres unmarked) [compound 3, fucoidan analog 3]",< 4.30,< 4.00,–
"CCCCCCCCOC1OC(C)C(O)C(OC2OC(C)C(O)C(OC3OC(C)C(O)C(OC4OC(C)C(O)C(O)C4O)C3O)C2O)C1O (centres unmarked) [compound 4, 4]",–,< 4.00,–
